According to patent publication US7037644B1, “Means and methods for monitoring non-nucleoside reverse transcriptase inhibitor antiretroviral therapy and guiding therapeutic decisions in the treatment of HIV/AIDS” (ViroLogic, Inc., priority 1998, dated 2006):
Entries after “also recorded” stand apart in the source; their conditions may differ.

Key:
Assay type in all cases: cell-based, HIV-1
P236L-RTV = assay: Phenotypic susceptibility assay (site directed mutant RTV); settings: P236L alone vs wild type reference RTV; also statements 'codon 236 alone or in combination'
Source text: (§1) The resistance test vectors containing a functional luciferase gene cassette were constructed and host cells were transfected with the resistance test vector DNA. The resistant test vectors contained patient-derived reverse transcriptase and protease sequences that were either susceptible or resistant to the antiretroviral agents, such as nucleoside reverse transcriptase inhibitors, non-nucleoside reverse transcriptase inhibitors and protease inhibitors. The resistance test vector viral particles produced by transfecting the resistance test vector DNA into host cells, either in the presence or absence of protease inhibitors, were used to infect target host cells grown either in the absence of NRTI or NNRTI or in the presence of increasing concentrations of the drug. The amount of luciferase activity produced in infected target host cells in the presence of drug was compared to the amount of luciferase produced in infected target host cells in the absence of drug. Drug resistance was measured as the amount of drug required to inhibit by 50% the luciferase activity detected in the absence of drug (inhibitory concentration 50%, IC50). The IC50 values were determined by plotting percent drug inhibition vs. log10 drug concentration.
(§2) Host cells were seeded in 10-cm-diameter dishes and were transfected several days after plating with resistance test vector plasmid DNA and the envelope expression vector. Transfections were performed using a calcium-phosphate precipitation procedure. The cell culture media containing the DNA precipitate was replaced with fresh medium, from one to 24 hours, after transfection. Cell culture media containing resistance test vector viral particles was harvested one to four days after transfection and was passed through a […] filter before being stored at […]. HIV capsid protein (p24) levels in the harvested cell culture media were determined by an EIA method as described by the manufacturer (SIAC; Frederick, Md.). Before infection, target cells (293 and 293/T) were plated in cell culture media. Control infections were performed using cell culture media from mock transfections (no DNA) or transfections containing the resistance test vector plasmid DNA without the envelope expression plasmid. One to three or more days after infection the media was removed and cell lysis buffer (Promega) was added to each well. Cell lysates were assayed for luciferase activity (FIG. 3). The inhibitory effect of the drug was determined using the following equation: % luciferase inhibition=1−(RLUluc [drug]÷RLUluc)×100 where RLUluc [drug] is the relative light unit of luciferase activity in infected cells in the presence of drug and RLUluc is the Relative Light Unit of luciferase activity in infected cells in the absence of drug. IC50 values were obtained from the sigmoidal curves that were generated from the data by plotting the percent inhibition of luciferase activity vs. the log10 drug concentration. The drug inhibition curves are shown in (FIG. 3).
(§3) Genotypic changes that are observed to correlate with changes in phenotypic patterns of drug susceptibility are evaluated by construction of resistance test vectors containing the specific mutation on a defined, wild-type (drug susceptible) genetic background. Mutations may be incorporated alone and/or in combination with other known drug resistance mutations that are thought to modulate the susceptibility of HIV to a certain drug or class of drugs. Mutations are introduced into the resistance test vector through any of the widely known methods for site-directed mutagenesis. In one embodiment of this invention the mega-primer PCR method for site-directed mutagenesis is used. […]

[1] = tested on: RTV with P225H plus K103N, Y181C or both; assay: as above; settings: P225H with K103N and/or Y181C vs RTV lacking P225H; also statements 'codon 225 alone or in combination with 103'
Source text: as §1, §2, §3

E138A-RTV = assay: as above; settings: E138A alone
Source text: as §1, §2
(§4) The E138A mutation alone and in combination with Y188L was introduced into resistance test vectors using the mega-primer method for site-directed mutagenesis (Sakar and Sommar, Ibid.). Resistance rest vectors containing the E138A mutation (E138A-RTV) or he E138 mutation along with the […] mutation (E138A-Y188L-RTV) were then tested using the phenotypic assay described earlier and the results were compared to those determined using a genetically defined resistance test vector that was wild type at positions 188 and 138. We determined the pattern of phenotypic susceptibility to the NNRTIs, delavirdine, nevirapine and efavirenz, in the E138A-RTV, Y188L-RTV and E138-Y188L-RTV.

E138A-Y188L-RTV = assay: as above; settings: for loss of susceptibility (fold, IC50) vs wild type control RTV: E138A and Y188L; for change in susceptibility: mutations at codons 138 and 188
Source text: as §1, §2, §4

K103N-RTV = assay: as above; settings: for change in susceptibility: K103N; for loss of susceptibility (fold, IC50) vs wild type control RTV: K103N alone
Source text: as §1, §2
The K101E, K103N and G190A mutations were introduced alone and in combination into resistance test vectors using the mega-primer method for site-directed mutagenesis (Sakar and Sommar, Ibid.).
(§5) The mutations Y188L, L100I and K103N were introduced alone and in combinationn into resistance test vectors using the mega-primer method for site-directed mutagenesis (Sakar and Sommar, Ibid.).

[2] = tested on: RTV-1033, patient 98-1033 (RT V106A, V189L, F227L); assay: Phenotypic susceptibility assay (patient RTV); settings: patient RTV pool
Source text: as §1, §2
A resistance test vector was constructed as described in Example 1 from a patient sample designated 98-1033. […]

L100I-K103N-Y188L-RTV = assay: Phenotypic susceptibility assay (site directed mutant RTV); settings: mutations at 103 and 100 and 188
Source text: as §1, §2, §5

K103N-Y188L-RTV = assay: as above; settings: for change in susceptibility: mutations at 103 and 188
Source text: as §1, §2, §5

L100I_K103N-RTV = assay: as above; settings: for change in susceptibility: mutations at 100 and 103
Source text: as §1, §2, §5

SMILES	change in susceptibility (P236L-RTV)	change in susceptibility [1]	change in susceptibility (fold, IC50) vs wild type control RTV (E138A-RTV)	loss of susceptibility (fold, IC50) vs wild type control RTV (E138A-Y188L-RTV)	change in susceptibility (E138A-Y188L-RTV)	change in susceptibility (K103N-RTV)	loss of susceptibility (fold, IC50) vs wild type control RTV (K103N-RTV)	decrease in susceptibility (fold, IC50) [2]	change in susceptibility (L100I-K103N-Y188L-RTV)	loss of susceptibility (fold, IC50) vs wild type control RTV (K103N-Y188L-RTV; K103N and Y188L)	change in susceptibility (K103N-Y188L-RTV)	loss of susceptibility (fold, IC50) vs wild type control RTV (L100I_K103N-RTV; L100I and K103N)	change in susceptibility (L100I_K103N-RTV)
Cc1ccnc2c1NC(=O)c1cccnc1N2C1CC1 [nevirapine]	no significant change; also recorded: little or no change; also recorded: little or no reduction; also recorded: no reduction	did not significantly change; also recorded: little or no change; also recorded: does not decrease; also recorded: no effect	1.3 fold	greater than 800 fold	substantial decrease	reduced susceptibility; also recorded: resistance	55 fold	greater than 800 fold	substantial decrease	greater than 800 fold	substantial decrease	70 fold	moderate decrease
O=C1Nc2ccc(Cl)cc2[C@@](C#CC2CC2)(C(F)(F)F)O1 [efavirenz]	no effect	little or no change	1.4 fold	88 fold	moderate decrese; also recorded: moderate decrease	–	30 fold	200 fold	substantial decrease	–	substantial decrease	–	substantial decrease
CC(C)Nc1cccnc1N1CCN(C(=O)c2cc3cc(NS(C)(=O)=O)ccc3[nH]2)CC1 [delavirdine]	less susceptible; also recorded: significant reduction; also recorded: decreased susceptibility; also recorded: decrease	more susceptible; also recorded: increase; also recorded: decreases the amount of delavirdine resistance	1.6 fold	75 fold	moderate decrease	reduced susceptibility; also recorded: resistance	50 fold	30 fold	substantial decrease	–	substantial decrease	–	substantial decrease
